# According to patent publication US20220395553A1, “CXCR4 ANTAGONIST PEPTIDES” (COHBAR, INC., priority 2019, published 2022):
# Square brackets hold non-standard residues; d marks the D form. Peptide text beside a SMILES is read from it.
# How the values were obtained:
# [1] = biological target: T1, human CXCR4 (Homo sapiens, UniProt P61073); assay: IC50 for inhibition of CXCR4 activation, β-Arrestin recruitment (Example 22); format: cell-based; design: host or cells: C2C12 (mouse myoblast) CXCR4 β-Arrestin PathHunter cell line
# Experimental: The assay was run with the DiscoverX protocol. β-Arrestin recruitment assays were performed by Eurofins-DiscoverX (Fremont, Calif.) using C2C12 CXCR4 β-Arrestin cell line (co-expressing ProLink tagged human CXCR4 and Enzyme Acceptor tagged β-Arrestin) and PathHunter detection kit. Peptides were initially prepared as 1 mM stock in H2O and tested in ten (10)-step concentration response curves using 3-fold dilution steps with 1 μM as highest concentration; a concentration range of 1 μM-0.05 nM was tested. C2C12 CXCR4 β-Arrestin cells were seed onto 384-well plates in standard medium. […] At the end of the 90 min incubation period, β-Arrestin recruitment in response to various treatments was quantified using a chemiluminescent complementation reporter assay to measure association of tagged human […] (ProLink tag) and tagged β-Arrestin (Enzyme Acceptor tag).
# [2] = biological target: T1, human CXCR4; assay: CXCR4/CXCL12 binding, HTRF format, single concentration (Example 23); design: host or cells: HEK293 (Tag-lite CXCR4 cells, frozen aliquots, transient expression); conditions: 15 nM CXCR4R fluorescent probe, 3 hours, HEK293 Tag-lite CXCR4 cells
# Experimental: Peptides were initially prepared as 1 mM stock in H2O and tested at a final concentration of 400 nM. Following the manufacture's protocol, a frozen aliquot of Tag-lite CXCR4 cells was thawed and immediately seeded onto 384-well plates in TLB. Immediately following the addition of cells, 400 nM peptide (final concentration) in TLB was added to the appropriate well. Then 15 nM (final concentration; EC80) of CXCR4R fluorescent probe was added to each well to initiate the HTRF assay. The plates were covered in aluminum foil and left at room temperature for 3 hours. Following the 3 hour incubation period, the plates were removed from the incubator and fluorescence measured using a Cytation 1 plate reader using a HTRF filter cube ([…]; BioTek; Winooski, Vt.). According manufacture's instruction data reduction was performed by calculating the ratio of 665 nm signal (TRF of 665 nm excitation by 620 emission; amount of CXCR4R fluorescent probe bound to terbium labeled CXCR receptor)/620 nm signal (620 excitation by 330 nm light source; normalization factor for amount of terbium labeled CXCR4 receptor in well)×10,000.
# T1 sequence (P61073 whole entry): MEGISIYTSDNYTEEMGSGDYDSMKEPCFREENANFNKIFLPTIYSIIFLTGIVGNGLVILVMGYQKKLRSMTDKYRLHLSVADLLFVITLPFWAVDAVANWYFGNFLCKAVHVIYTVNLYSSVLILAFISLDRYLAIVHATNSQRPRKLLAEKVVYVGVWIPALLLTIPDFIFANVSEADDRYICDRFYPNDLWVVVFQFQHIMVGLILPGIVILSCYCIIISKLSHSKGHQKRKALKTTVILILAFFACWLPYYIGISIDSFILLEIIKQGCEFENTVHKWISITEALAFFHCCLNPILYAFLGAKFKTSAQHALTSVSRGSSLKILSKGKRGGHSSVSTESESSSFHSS
Structure (SMILES),IC50 [1] [µM],Percent Inhibition of CXCR4/CXCL12 Binding (400 nM peptide) [2] [%]
CC(C)C[C@H](NC(=O)[C@H](CO)NC(=O)[C@H](CO)NC(=O)[C@H](CCCNC(=N)N)NC(=O)[C@@H](NC(=O)[C@H](CO)NC(=O)[C@H](Cc1c[nH]cn1)NC(=O)[C@H](CC(N)=O)NC(=O)[C@H](Cc1ccc(O)cc1)NC(=O)[C@H](CCCNC(=N)N)NC(=O)[C@H](CCCNC(=N)N)NC(=O)[C@@H](N)CC(C)C)C(C)C)C(=O)N[C@@H](CCCNC(=N)N)C(=O)N1CCC[C@H]1C(=O)N[C@@H](Cc1ccc(O)cc1)C(=O)N[C@H](C(=O)N[C@@H](CCCCN)C(=O)O)[C@@H](C)O [compound 41] (H-LRRYNHSVRSSLRPYTK-OH; N-terminus and C-terminus assumed),0.004,−2
CC(C)C[C@H](NC(=O)[C@H](CO)NC(=O)[C@H](CO)NC(=O)[C@H](CCCNC(=N)N)NC(=O)[C@@H](NC(=O)[C@H](CO)NC(=O)[C@H](Cc1c[nH]cn1)NC(=O)[C@H](Cc1c[nH]cn1)NC(=O)[C@H](Cc1ccc(O)cc1)NC(=O)[C@@H](N)CCCNC(=N)N)C(C)C)C(=O)N[C@@H](CCCNC(=N)N)C(=O)N1CCC[C@H]1C(=O)N[C@@H](Cc1ccc(O)cc1)C(=O)N[C@H](C(=O)N[C@@H](CCCCN)C(=O)O)[C@@H](C)O [compound 11] (H-RYHHSVRSSLRPYTK-OH; N-terminus and C-terminus assumed),0.175,−9
CC(C)C[C@H](NC(=O)[C@H](CO)NC(=O)[C@H](CO)NC(=O)[C@H](CCCNC(=N)N)NC(=O)[C@@H](NC(=O)[C@H](CO)NC(=O)[C@H](CC(N)=O)NC(=O)[C@H](Cc1c[nH]cn1)NC(=O)[C@H](Cc1ccc(O)cc1)NC(=O)[C@H](CCCNC(=N)N)NC(=O)[C@H](CCC(=O)O)NC(=O)[C@@H](N)CC(C)C)C(C)C)C(=O)N[C@@H](CCCNC(=N)N)C(=O)N1CCC[C@H]1C(=O)N[C@@H](Cc1ccc(O)cc1)C(=O)N[C@H](C(=O)N[C@@H](CCCCN)C(=O)O)[C@@H](C)O [compound 45] (H-LERYHNSVRSSLRPYTK-OH; N-terminus and C-terminus assumed),0.121,1
CC(C)C[C@H](NC(=O)[C@H](CO)NC(=O)[C@H](CO)NC(=O)[C@H](CCCNC(=N)N)NC(=O)[C@@H](NC(=O)[C@H](CO)NC(=O)[C@H](Cc1c[nH]cn1)NC(=O)[C@H](Cc1c[nH]cn1)NC(=O)[C@H](Cc1ccc(O)cc1)NC(=O)[C@H](CCCNC(=N)N)NC(=O)[C@H](CCC(=O)O)NC(=O)[C@@H](N)CC(C)C)C(C)C)C(=O)O [compound 22] (H-LERYHHSVRSSL-OH; N-terminus and C-terminus assumed),0.017,14
CC(C)C[C@H](NC(=O)[C@H](CO)NC(=O)[C@H](CO)NC(=O)[C@H](CCCNC(=N)N)NC(=O)[C@@H](C)NC(=O)[C@H](CO)NC(=O)[C@H](Cc1c[nH]cn1)NC(=O)[C@H](Cc1c[nH]cn1)NC(=O)[C@H](Cc1ccc(O)cc1)NC(=O)[C@H](CCCNC(=N)N)NC(=O)[C@H](CCCNC(=N)N)NC(=O)[C@@H](N)CC(C)C)C(=O)N[C@@H](CCCNC(=N)N)C(=O)N1CCC[C@H]1C(=O)N[C@@H](Cc1ccc(O)cc1)C(=O)N[C@H](C(=O)N[C@@H](CCCCN)C(=O)O)[C@@H](C)O [compound 6] (H-LRRYHHS[dA]RSSLRPYTK-OH; N-terminus and C-terminus assumed),0.008,−10

# More lines, now with the values ahead:
IC50 [1] [µM],Percent Inhibition of CXCR4/CXCL12 Binding (400 nM peptide) [2] [%],Structure (SMILES)
0.014,9,CC(C)C[C@H](NC(=O)[C@H](CO)NC(=O)[C@H](CO)NC(=O)[C@H](CCCNC(=N)N)NC(=O)[C@@H](NC(=O)[C@H](CO)NC(=O)[C@H](Cc1c[nH]cn1)NC(=O)[C@H](Cc1c[nH]cn1)NC(=O)[C@H](Cc1ccc(O)cc1)NC(=O)[C@H](CCCNC(=N)N)NC(=O)[C@H](CCCNC(=N)N)NC(=O)[C@@H](N)CC(C)C)C(C)C)C(=O)N[C@@H](CCC(=O)O)C(=O)N1CCC[C@H]1C(=O)N[C@@H](Cc1ccc(O)cc1)C(=O)N[C@H](C(=O)N[C@@H](CCCCN)C(=O)O)[C@@H](C)O [compound 63] (H-LRRYHHSVRSSLEPYTK-OH; N-terminus and C-terminus assumed)
0.014,−6,CC(C)C[C@H](NC(=O)[C@H](CO)NC(=O)[C@H](CO)NC(=O)[C@H](CCC(=O)O)NC(=O)[C@@H](C)NC(=O)[C@H](CO)NC(=O)[C@H](Cc1c[nH]cn1)NC(=O)[C@H](Cc1c[nH]cn1)NC(=O)[C@H](Cc1ccc(O)cc1)NC(=O)[C@H](CCCNC(=N)N)NC(=O)[C@H](CCCNC(=N)N)NC(=O)[C@@H](N)CC(C)C)C(=O)N[C@@H](CCCNC(=N)N)C(=O)N1CCC[C@H]1C(=O)N[C@@H](Cc1ccc(O)cc1)C(=O)N[C@H](C(=O)N[C@@H](CCCCN)C(=O)O)[C@@H](C)O [compound 64] (H-LRRYHHS[dA]ESSLRPYTK-OH; N-terminus and C-terminus assumed)
0.121,−2,CC(C)C[C@H](NC(=O)[C@H](CO)NC(=O)[C@H](CO)NC(=O)[C@H](CCCNC(=N)N)NC(=O)[C@@H](C)NC(=O)[C@H](CO)NC(=O)[C@H](CCC(N)=O)NC(=O)[C@H](Cc1c[nH]cn1)NC(=O)[C@H](Cc1ccc(O)cc1)NC(=O)[C@H](CCCNC(=N)N)NC(=O)[C@H](CCC(=O)O)NC(=O)[C@@H](N)CC(C)C)C(=O)N[C@@H](CCCNC(=N)N)C(=O)N1CCC[C@H]1C(=O)N[C@@H](Cc1ccc(O)cc1)C(=O)N[C@H](C(=O)N[C@@H](CCCCN)C(=O)O)[C@@H](C)O [compound 52] (H-LERYHQS[dA]RSSLRPYTK-OH; N-terminus and C-terminus assumed)
0.121,−5,CC(C)C[C@H](NC(=O)[C@H](CO)NC(=O)[C@H](CO)NC(=O)[C@H](CCCNC(=N)N)NC(=O)[C@@H](NC(=O)[C@H](CO)NC(=O)[C@H](CCC(N)=O)NC(=O)[C@H](Cc1c[nH]cn1)NC(=O)[C@H](Cc1ccc(O)cc1)NC(=O)[C@H](CCCNC(=N)N)NC(=O)[C@H](CCCNC(=N)N)NC(=O)[C@@H](N)CC(C)C)C(C)C)C(=O)N[C@@H](CCCNC(=N)N)C(=O)N1CCC[C@H]1C(=O)N[C@@H](Cc1ccc(O)cc1)C(=O)N[C@H](C(=O)N[C@@H](CCCCN)C(=O)O)[C@@H](C)O [compound 50] (H-LRRYHQSVRSSLRPYTK-OH; N-terminus and C-terminus assumed)
0.011,5,CC(C)C[C@H](NC(=O)[C@H](CO)NC(=O)[C@H](CO)NC(=O)[C@H](CCCNC(=N)N)NC(=O)[C@@H](NC(=O)[C@H](CO)NC(=O)[C@H](Cc1c[nH]cn1)NC(=O)[C@H](CCC(N)=O)NC(=O)[C@H](Cc1ccc(O)cc1)NC(=O)[C@H](CCCNC(=N)N)NC(=O)[C@H](CCCNC(=N)N)NC(=O)[C@@H](N)CC(C)C)C(C)C)C(=O)N[C@@H](CCCNC(=N)N)C(=O)N1CCC[C@H]1C(=O)N[C@@H](Cc1ccc(O)cc1)C(=O)N[C@H](C(=O)N[C@@H](CCCCN)C(=O)O)[C@@H](C)O [compound 47] (H-LRRYQHSVRSSLRPYTK-OH; N-terminus and C-terminus assumed)
